Laboratory results reported in ChEMBL document CHEMBL5291721, “A preclinical secondary pharmacology resource illuminates target-adverse drug reaction associations of marketed drugs” (Nat Commun, 2023).

What was measured:
[1] = molecular target: T1, Alpha-1A adrenergic receptor (Homo sapiens, UniProt P35348); type: functional, cell-based
T1 sequence (P35348 whole entry): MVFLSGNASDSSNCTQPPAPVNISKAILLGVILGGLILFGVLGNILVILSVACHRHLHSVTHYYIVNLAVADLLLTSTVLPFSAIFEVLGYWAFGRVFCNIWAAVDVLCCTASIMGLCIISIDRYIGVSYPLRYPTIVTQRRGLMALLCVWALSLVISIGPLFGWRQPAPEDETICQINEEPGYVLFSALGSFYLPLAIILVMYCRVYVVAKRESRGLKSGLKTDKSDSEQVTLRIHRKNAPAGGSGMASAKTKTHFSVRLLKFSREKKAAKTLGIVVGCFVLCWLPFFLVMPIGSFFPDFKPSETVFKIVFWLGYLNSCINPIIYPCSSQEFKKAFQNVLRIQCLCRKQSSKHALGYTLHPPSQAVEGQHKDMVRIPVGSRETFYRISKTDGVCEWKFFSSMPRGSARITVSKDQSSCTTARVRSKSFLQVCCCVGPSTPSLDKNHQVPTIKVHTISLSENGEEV

[2] = molecular target: T2, Alpha-2A adrenergic receptor (Homo sapiens, UniProt P08913); type: functional, cell-based
T2 sequence (P08913 whole entry): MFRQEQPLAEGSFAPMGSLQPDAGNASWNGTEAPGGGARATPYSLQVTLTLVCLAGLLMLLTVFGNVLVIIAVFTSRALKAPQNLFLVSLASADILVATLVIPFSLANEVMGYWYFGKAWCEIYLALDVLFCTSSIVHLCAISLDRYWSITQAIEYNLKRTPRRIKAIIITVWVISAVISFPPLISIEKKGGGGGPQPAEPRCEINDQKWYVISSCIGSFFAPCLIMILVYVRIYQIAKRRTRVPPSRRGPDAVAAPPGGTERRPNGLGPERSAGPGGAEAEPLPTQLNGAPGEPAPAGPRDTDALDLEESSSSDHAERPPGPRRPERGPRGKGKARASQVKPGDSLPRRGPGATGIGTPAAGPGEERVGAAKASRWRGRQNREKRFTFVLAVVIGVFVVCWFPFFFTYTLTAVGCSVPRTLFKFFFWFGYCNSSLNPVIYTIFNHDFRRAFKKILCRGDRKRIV

[3] = molecular target: Beta-1 adrenergic receptor (Homo sapiens, UniProt P08588); type: functional
Chain of Beta-1 adrenergic receptor (P08588 whole entry): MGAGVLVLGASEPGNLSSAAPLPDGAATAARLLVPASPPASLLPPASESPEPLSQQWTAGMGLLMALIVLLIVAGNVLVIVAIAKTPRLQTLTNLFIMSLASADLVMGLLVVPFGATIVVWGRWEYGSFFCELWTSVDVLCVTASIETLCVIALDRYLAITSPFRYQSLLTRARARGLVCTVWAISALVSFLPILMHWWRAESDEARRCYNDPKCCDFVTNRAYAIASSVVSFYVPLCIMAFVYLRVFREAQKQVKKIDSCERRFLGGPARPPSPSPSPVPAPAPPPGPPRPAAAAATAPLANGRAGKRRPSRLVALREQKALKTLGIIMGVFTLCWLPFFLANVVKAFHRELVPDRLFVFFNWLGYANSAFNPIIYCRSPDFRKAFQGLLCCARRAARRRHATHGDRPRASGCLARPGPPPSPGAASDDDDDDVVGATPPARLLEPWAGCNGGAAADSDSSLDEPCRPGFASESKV

D(1A) dopamine receptor = D(1A) dopamine receptor (Homo sapiens, UniProt P21728); type: functional, cell-based
Chain of D(1A) dopamine receptor (P21728 whole entry): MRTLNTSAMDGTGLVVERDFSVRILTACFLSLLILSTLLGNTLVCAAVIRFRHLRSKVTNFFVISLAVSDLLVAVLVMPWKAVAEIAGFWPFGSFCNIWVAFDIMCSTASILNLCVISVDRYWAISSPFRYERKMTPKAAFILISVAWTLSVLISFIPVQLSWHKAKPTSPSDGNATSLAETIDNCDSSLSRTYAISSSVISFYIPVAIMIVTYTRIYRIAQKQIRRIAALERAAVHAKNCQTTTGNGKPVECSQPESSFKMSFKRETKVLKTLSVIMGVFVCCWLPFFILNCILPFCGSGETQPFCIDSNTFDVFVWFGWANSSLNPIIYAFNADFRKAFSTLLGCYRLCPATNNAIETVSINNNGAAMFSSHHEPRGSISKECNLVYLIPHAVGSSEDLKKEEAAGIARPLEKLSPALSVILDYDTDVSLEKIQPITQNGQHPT

[4] = molecular target: Gamma-aminobutyric acid receptor subunit alpha-1 (Rattus norvegicus, UniProt P62813); type: functional
Chain of Gamma-aminobutyric acid receptor subunit alpha-1 (P62813 whole entry): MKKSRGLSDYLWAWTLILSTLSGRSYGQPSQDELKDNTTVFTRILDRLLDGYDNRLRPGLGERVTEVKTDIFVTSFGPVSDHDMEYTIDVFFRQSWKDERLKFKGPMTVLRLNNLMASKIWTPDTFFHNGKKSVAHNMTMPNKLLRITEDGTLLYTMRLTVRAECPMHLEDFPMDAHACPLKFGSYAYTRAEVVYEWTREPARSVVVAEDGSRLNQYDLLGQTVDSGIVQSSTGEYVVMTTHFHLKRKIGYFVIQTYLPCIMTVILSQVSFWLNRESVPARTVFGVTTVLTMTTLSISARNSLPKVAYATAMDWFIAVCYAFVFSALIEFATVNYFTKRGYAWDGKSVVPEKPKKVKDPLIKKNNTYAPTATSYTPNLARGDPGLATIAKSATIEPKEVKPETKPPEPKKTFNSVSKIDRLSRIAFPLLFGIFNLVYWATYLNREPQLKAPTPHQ

[5] = molecular target: Glutamate receptor ionotropic, NMDA 1 (Rattus norvegicus, UniProt P35439)
[6] = molecular target: T3, 5-hydroxytryptamine receptor 2C (Homo sapiens, UniProt P28335)
T3 sequence (P28335 whole entry): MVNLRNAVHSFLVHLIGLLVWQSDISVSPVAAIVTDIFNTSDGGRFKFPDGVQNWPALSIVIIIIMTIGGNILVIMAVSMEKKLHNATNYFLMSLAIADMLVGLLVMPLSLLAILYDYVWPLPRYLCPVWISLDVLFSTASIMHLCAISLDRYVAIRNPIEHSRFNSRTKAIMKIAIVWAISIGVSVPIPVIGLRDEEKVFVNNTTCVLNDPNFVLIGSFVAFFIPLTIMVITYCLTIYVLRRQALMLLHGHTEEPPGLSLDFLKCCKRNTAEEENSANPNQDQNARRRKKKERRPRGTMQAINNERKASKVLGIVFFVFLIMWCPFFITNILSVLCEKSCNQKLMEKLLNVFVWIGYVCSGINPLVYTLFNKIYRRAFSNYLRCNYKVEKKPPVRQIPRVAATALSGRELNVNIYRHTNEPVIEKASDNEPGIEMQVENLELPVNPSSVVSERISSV

Thromboxane A2 receptor = molecular target: T4, Thromboxane A2 receptor (Homo sapiens, UniProt P21731)
T4 sequence (P21731 whole entry): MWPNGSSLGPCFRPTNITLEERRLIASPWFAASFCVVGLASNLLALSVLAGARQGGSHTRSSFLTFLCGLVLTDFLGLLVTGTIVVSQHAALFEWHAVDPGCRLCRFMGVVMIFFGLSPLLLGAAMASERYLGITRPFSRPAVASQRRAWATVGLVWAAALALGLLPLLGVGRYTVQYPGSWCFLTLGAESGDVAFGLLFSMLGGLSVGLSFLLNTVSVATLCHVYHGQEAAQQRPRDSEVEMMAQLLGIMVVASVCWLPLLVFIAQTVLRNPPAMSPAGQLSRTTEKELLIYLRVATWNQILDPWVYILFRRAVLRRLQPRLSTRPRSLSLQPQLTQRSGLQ

[7] = molecular target: Sodium-dependent noradrenaline transporter (Homo sapiens, UniProt P23975)
Chain of Sodium-dependent noradrenaline transporter (P23975 whole entry): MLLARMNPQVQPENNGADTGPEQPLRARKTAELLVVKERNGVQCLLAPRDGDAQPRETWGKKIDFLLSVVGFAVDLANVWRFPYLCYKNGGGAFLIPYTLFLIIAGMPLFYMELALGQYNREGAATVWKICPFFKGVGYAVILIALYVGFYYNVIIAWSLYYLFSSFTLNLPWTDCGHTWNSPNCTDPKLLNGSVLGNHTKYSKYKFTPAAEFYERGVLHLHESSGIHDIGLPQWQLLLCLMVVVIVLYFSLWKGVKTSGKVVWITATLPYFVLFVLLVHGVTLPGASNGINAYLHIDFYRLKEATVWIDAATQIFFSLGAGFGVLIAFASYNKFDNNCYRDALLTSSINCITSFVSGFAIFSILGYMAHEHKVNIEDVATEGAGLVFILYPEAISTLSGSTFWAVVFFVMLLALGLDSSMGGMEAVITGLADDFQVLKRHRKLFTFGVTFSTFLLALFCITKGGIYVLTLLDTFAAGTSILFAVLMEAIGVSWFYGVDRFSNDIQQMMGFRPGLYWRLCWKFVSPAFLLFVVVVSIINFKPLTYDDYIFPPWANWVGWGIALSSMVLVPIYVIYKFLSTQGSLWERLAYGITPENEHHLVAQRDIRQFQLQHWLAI
Also: assay procedure not described here.

Compound | AC50 [1] [µM] | AC50 [2] [µM] | AC50 [3] [µM] | AC50 (D(1A) dopamine receptor) [µM] | AC50 [4] [µM] | AC50 [5] [µM] | AC50 [6] [µM] | AC50 (Thromboxane A2 receptor) [µM] | AC50 [7] [µM]
CC1=C(CC(=O)O)c2cc(F)ccc2/C1=C\c1ccc([S+](C)[O-])cc1 (stereo not drawn) | > 30 | > 10 | > 10 | > 10 | > 10 | > 10 | > 30 | > 30 | > 30
O=C(O[C@H]1C[N+]2(CCCOc3ccccc3)CCC1CC2)C(O)(c1cccs1)c1cccs1 [ACLIDINIUM BROMIDE] |  |  | > 10 |  | > 10 | > 10 | > 30 | > 30 | > 10
Cc1nnc2n1-c1ccc(Cl)cc1C(c1ccccc1)=NC2 [ALPRAZOLAM] | > 30 | > 10 | > 10 | > 10 | 0.0042 | > 10 | > 30 | > 30 | > 10
O=C(O)CCCC[C@@H]1SC[C@@H]2NC(=O)N[C@@H]21 [BIOTIN] |  | > 10 |  | > 10 |  |  | > 30 | > 10 | > 10
CC(NC(C)(C)C)C(=O)c1cccc(Cl)c1 (stereo not drawn) [BUPROPION] | > 30 | > 10 | > 10 | > 10 |  | > 10 | > 30 | > 30 | 
Oc1cc(O)c2c(c1)O[C@H](c1ccc(O)c(O)c1)[C@@H](O)C2 [CIANIDANOL] | > 30 | > 10 | > 10 | > 10 | > 10 | > 10 | > 30 | > 30 | > 30
O=C1CN=C(c2ccccc2Cl)c2cc([N+](=O)[O-])ccc2N1 [CLONAZEPAM] | > 30 | > 10 | > 10 | > 10 | 0.0025 | > 10 | > 30 | > 30 | > 10
CCN(CC)C(C)C(=O)c1ccccc1 (stereo not drawn) [DIETHYLPROPION] | > 30 | > 10 | > 10 | > 10 | > 10 | > 10 | > 30 | > 30 | > 30
OCCN(CCO)c1nc(N2CCCCC2)c2nc(N(CCO)CCO)nc(N3CCCCC3)c2n1 [DIPYRIDAMOLE] | 3.5 | > 10 |  | > 30 | 1.4 | > 30 | > 30 | > 30 | > 30
Cc1ccc(-c2ncc(Cl)cc2-c2ccc(S(C)(=O)=O)cc2)cn1 [ETORICOXIB] | > 30 | > 10 | > 10 | > 10 | > 10 | > 10 | > 10 | > 10 | > 10
Cc1cnc(Nc2ccc(OCCN3CCCC3)cc2)nc1Nc1cccc(S(=O)(=O)NC(C)(C)C)c1 [FEDRATINIB] |  | > 10 | > 10 | > 10 | > 10 | > 10 | > 30 | > 30 | 0.24
